Where a name gives a salt, the structure may show the parent alone.
What was measured:
[1] = system: intestinal transit; experiment: charcoal meal assay (gastrointestinal motility), alleviation of morphine-induced hypomotility; assay type: in vivo, mice; conditions: for effect on intestinal transit in the absence of morphine: no morphine, groups 4 and 6; for protection of the intestine against the depressant effect of morphine / percentage of intestine traveled compared with group 1 (no morphine): with morphine; for protection of the intestine against the depressant effect of morphine: groups 5 and 7; for percentage of intestine traveled compared with group 1 (no morphine): groups 5 and 7 vs group 1
Experimental: Summary of the Results of the Charcoal Meal Assay^a
(Gastrointestial Motility) in Mice Given Nalmefene HCl
and Nalmefene-β-D-Glucuronide
^b The first vehicle or drug listed under Treatment was given 30
minutes before the second vehicle or drug listed. The results were
determined 30 min later. All treatments are p.o. and given in a volume of
0.3 ml. Doses were 10 mg/kg for morphine, 15 mg/kg or 2.9 ×

[2] = system: opioid-dependant animals (central nervous system); experiment: Rapid Quantitative In Vivo Assay for Narcotic Antagonist (skin tail temperature rise, CNS withdrawal sign); conditions: FIG. 2; injection of 1000 μg/kg
Description: The Rapid Quantitative In Vivo Assay for Narcotic Antagonist of Katovich et al. (Substance and Alcohol Actions/Misuse, vol 5: 87095, 1984) was used. This assay is based on the extreme sensitivity of opioid-dependant animals to narcotic antagonists. Injection of these animals with a narcotic antagonist produces severe central nervous system withdrawal signs. One of these signs is an abrupt rise in the skin temperature of the tail.

[3] = absorption and distribution of ^14 C labelled nalmefene glucuronide after oral administration; assay type: in vivo, rats
Description: Therefore the glucuronide of an opioid antagonist provides a means of preventing narcotic-induced intestinal hypomotility without interfering with central nervous system effects of narcotics, such as analgesia.

[4] = analysis of blood, urine and feces after oral nalmefene (free nalmefene versus nalmefene glucuronide); assay type: in vivo, rats; conditions: oral administration
Description: Such a high degree of biotransformation is common for this type of drug.

[5] = system: constipation; conditions: patients not exposed to an exogenous opioid; Kreek et al., Lancet 1983; cited from earlier work

CN1CC[C@]23c4c5ccc(O)c4O[C@H]2[C@@H](O)C=C[C@H]3[C@H]1C5 [Morphine]
Percent Meal Traveled ± S.E.M. ([1]; Group 2: Saline + Morphine, morphine 10 mg/kg p.o. given 30 min after saline, N = 8, significantly different (p < 0.05) from Saline + Saline controls): 28 ± 2% | Percent Meal Traveled ± S.E.M. ([1]; Group 3: Morphine + Saline, morphine 10 mg/kg p.o. given 30 min before saline, N = 8, p < 0.05 vs Saline + Saline, no difference vs Saline + Morphine): 31 ± 3% | reduction of the percentage of the intestine traveled ([1]; morphine, groups 2 and 3): reduced the percentage of the intestine traveled by more than half

C=C1CC[C@@]2(O)[C@H]3Cc4ccc(O)c5c4[C@@]2(CCN3CC2CC2)[C@H]1O5 [Nalmefene HCl]
Percent Meal Traveled ± S.E.M. ([1]; Group 6: Saline + Nalmefene HCl, 2.9 × 10^-6 M/kg p.o., N = 8): 63 ± 2% | Percent Meal Traveled ± S.E.M. ([1]; Group 7: Morphine (10 mg/kg p.o., 30 min before) + Nalmefene HCl 2.9 × 10^-6 M/kg p.o., N = 5, no difference vs Saline + Saline, p < 0.05 vs Morphine + Saline): 66 ± 14%

C=C1CC[C@@]2(O)[C@H]3Cc4ccc(O[C@@H]5O[C@H](C(=O)O)[C@@H](O)[C@H](O)[C@H]5O)c5c4[C@@]2(CCN3CC2CC2)[C@H]1O5 [nalmefene glucuronide, nalmefene-3β-D-glucuronide]
effect on skin tail temperature [2]: no effect | form of the drug in the cecum ([3]; 2 hours after oral dosing): almost exclusively free nalmefene | part of the dose present in the small intestine still as nalmefene glucuronide ([3]; 2 hours after oral dosing): about 85% | part of the dose which had reached the cecum ([3]; 2 hours after oral dosing): 2-3% | radioactivity in plasma ([3]; 2 hours after oral dosing): No radioactivity could be detected in plasma | absorption following oral administration ([3]; ^14 C label, oral doses as high as 40 mg/kg): not absorbed to any measurable extent | Percent Meal Traveled ± S.E.M. ([1]; Group 4: Saline + Nalmefene Glucuronide, 15 mg/kg or 2.9 × 10^-6 M/kg p.o., N = 8, no significant difference vs Saline + Saline): 66 ± 3% | Percent Meal Traveled ± S.E.M. ([1]; Group 5: Morphine (10 mg/kg p.o., 30 min before) + Nalmefene Glucuronide 15 mg/kg or 2.9 × 10^-6 M/kg p.o., N = 5, no difference vs Saline + Saline, p < 0.05 vs Morphine + Saline): 58 ± 12% | effect on intestinal transit in the absence of morphine [1]: neither nalmefene (group 6) nor nalmefene glucuronide (group 4) had any significant effect | effectiveness against morphine-induced intestinal hypomotility compared with nalmefene ([1]; vs nalmefene): as effective as nalmefene | protection of the intestine against the depressant effect of morphine [1]: protected the intestine against the depressant effect of morphine | percentage of intestine traveled compared with group 1 (no morphine) [1]: not significantly less than in the group (group 1) where no morphine was present

C=C1CC[C@@]2(O)[C@H]3Cc4ccc(O)c5c4[C@@]2(CCN3CC2CC2)[C@H]1O5 [nalmefene, 6-methylene-6-desoxy-N-cyclopropylmethyl-14-hydroxydihydronormorphine]
effect on intestinal transit in the absence of morphine [1]: neither nalmefene (group 6) nor nalmefene glucuronide (group 4) had any significant effect | protection of the intestine against the depressant effect of morphine [1]: protected the intestine against the depressant effect of morphine | percentage of intestine traveled compared with group 1 (no morphine) [1]: not significantly less than in the group (group 1) where no morphine was present | biotransformation by "first-pass" metabolism [4]: almost totally biotransformed

C=CCN1CC[C@]23c4c5ccc(O)c4O[C@H]2C(=O)CC[C@@]3(O)[C@H]1C5 [naloxone]
relief of constipation [5]: relieves constipation
